Results published in US10149907B2, “Combinations of a photosensitizer with a hydrogen sulfide donor, thioredoxin inhibitor or nitroxide for use in photodynamic therapy” (UNIVERSITY OF EXETER, priority 2014, dated 2018).
“Also recorded” adds a separate entry of the source. Like-named read-outs stand apart in the source and are kept apart here.

Columns and labels:
A431 cells [1] = system: A431 cells
Experimental: A431 cells were seeded at a density of 1×10^5 cells/ml in 96 well plates and incubated under 2% O2 for 48 h prior to treatment. After 24 h, the culture medium was replaced and the cells were placed back into the incubators under 2% O2. Following this incubation period, the culture medium was then removed and the plates were washed with PBS. The cells were then treated with 1 mM MAL in the absence or presence of one of the compounds of interest and then incubated again at 2% O2 for 3 h. For experiments carried out with SRHDs, this treatment step was carried out for 5 h at 2% O2. After treatment, the cells were washed with PBS, the culture medium was replaced and the cells were placed back under 2% O2 for 3 h. Following this final incubation, cell death was analysed using the resazurin viability assay.
Resazurin (7-hydroxy-3H-phenoxazin-3-one 0-oxide) is a weakly fluorescent blue dye used primarily in oxidation-reduction cell viability assays. Irreversible NADH-dependent reduction by the mitochondria in mammalian cells leads to the production of resorufin, a highly fluorescent product with excitation at 571 nm, emission at 585 nm.
A431 cells were seeded into 96 well plates at a density of 1.5*10^6 cells per ml (200 μl per well, 3*10^5 cells) and incubated for 24 h to adhere. Following incubation, the cells were washed and treated with the compound of interest for the relevant time, and then washed with PBS. […] After a 2 h incubation, the fluorescence of each well was measured (excitation: 571 nm, emission: 585 nm) using a fluorescence plate reader. Data from these experiments was plotted as a percentage of cell viability compared to untreated control cells.

A431 cells [2] = assay: cells; format: cell-based; details: for modes of cell death (early apoptosis, late apoptosis, necrosis) / effect on photodynamic cell killing compared to MAL and irradiation only: 1 mM MAL + SRHD 1 μM + irradiation; for modes of cell death (early apoptosis, late apoptosis, necrosis): compared to MAL and irradiation, FIG. 2, 4
Experimental: A431 cells (human epithelial squamous cell carcinoma cells) were seeded at a density of 1×10^6 cells/ml in T12.5 cm^2 flasks and incubated under 2% O2 for 48 h prior to treatment. After 24 h, the culture medium was replaced and the cells were placed back into the incubators under 2% O2. Following this incubation period, the culture medium was then removed and the flasks were washed with PBS. The cells were then treated with one of the SRHDs and incubated at 2% O2 for 2 h, after which MAL was added to a final concentration of 1 mM and the cells were incubated at 2% O2 for 3 h. This meant in total, the cells were treated with the SRHDs for 5 h.
Following this final incubation, cell death was analysed by annexin V-FITC and propidium iodide staining in conjunction with flow cytometry.
(§1) Cell death analysis by flow cytometry was carried out using the annexin V-FITC/propidium iodide protocol. This protocol allows a quantitative assessment of cell death, particularly specific modes of death, and involves staining the cells with fluorescein isothiocyanate-conjugated annexin A5 (annexin V-FITC) and propidium iodide (PI). Positive staining with annexin V-FITC alone indicates an apoptotic cell; positive staining with PI alone indicates a necrotic cell and dual staining of both annexin V and PI indicates a “late apoptotic” cell.
From each flask being assessed, the old medium was removed and placed into a corresponding individual 15 ml Falcon tube in order to collect any cells that may have detached from the surface. The flask was washed once with 1 ml PBS; also deposited in the Falcon tubes. Trypsin (500 μl) was added to each flask and the flasks were returned to the incubator with their caps loosened. Cell detachment was monitored using an inverted light microscope, until 50% of the cells were detached. The flasks were then lightly tapped to detach the remainder of the cells. Medium (2 ml) was added to each flask in order to neutralise the trypsin present before being removed and dispensed into the Falcon tubes. One more wash with PBS was carried out in order to ensure any cells left in the flasks were collected. The Falcon tubes were then centrifuged at 490 g for 3 min, forming a pellet at the bottom of the tube. The supernatant was discarded, and the cells were re-suspended in 5 ml of PBS, in order to wash them, before being centrifuged again at 490 g for 3 min. […] The Falcon tubes were placed on ice and in the dark for 15 min to allow annexin V staining. […] The samples were then ready to be assessed by flow cytometry.
(§2) The following flow cytometry process of sample detection was used. When using annexin V-FITC and PI, the detectors being used were FL1 (λmax=520 nm) and FL3 (λmax=670 nm), respectively, each with their own logarithmic histogram generated by the software. The intensity of the fluorescence detected is measured on a logarithmic scale on the x-axis and the y-axis represents the number of cells detected at a given fluorescence intensity. A plot of FL1/FL3 produces a 4-quadrant graph, where unstained and untreated cells are located in the bottom left quadrant, representing any cells found in the 1st decade of the single plot logarithmic histograms. Single staining with annexin V-FITC and PI are located in the bottom right and top left quadrant, respectively, and dual staining is located in the top right quadrant. These quadrants represent any cells detected above the 1st decade of the logarithmic histograms.

A431 cells [3] = assay: Photodynamic cell killing in the presence of inhibitors of the thioredoxin antioxidant system or nitroxides (annexin V-FITC/propidium iodide flow cytometry); format: cell-based, human; details: for cell death: 3 h, irradiation
Experimental: After this treatment, the cells were irradiated for 5 min (630 nm, 25 J/cm^2), then washed with PBS and the culture medium was replaced, after which the cells were placed back under 2% O2 and incubated for a further 3 h. Following this final incubation, cell death was analysed by annexin V-FITC and propidium iodide staining in conjunction with flow cytometry.
as §1
From each flask being assessed, the old medium was removed and placed into a corresponding individual 15 ml Falcon tube in order to collect any cells that may have detached from the surface. The flask was washed once with 1 ml PBS; also deposited in the Falcon tubes. Trypsin (500 μl) was added to each flask and the flasks were returned to the incubator with their caps loosened. Cell detachment was monitored using an inverted light microscope, until 50% of the cells were detached. The flasks were then lightly tapped to detach the remainder of the cells. Medium (2 ml) was added to each flask in order to neutralise the trypsin present before being removed and dispensed into the Falcon tubes. One more wash with PBS was carried out in order to ensure any cells left in the flasks were collected. The Falcon tubes were then centrifuged at 490 g for 3 min, forming a pellet at the bottom of the tube. The supernatant was discarded, and the cells were re-suspended in 5 ml of PBS, in order to wash them, before being centrifuged again at 490 g for 3 min. The wash stage was carried out once more before re-suspending the cell pellet in 95 μl of ice cold calcium (Ca^2+) buffer (50 mM HEPES, 700 mM NaCl, 12.5 mM CaCl2, pH 7.4) and adding 5 μl 12.5 μg/ml of annexin V-FITC (final concentration, 1.25 μg/ml), under reduced light conditions to prevent bleaching of the FITC. The Falcon tubes were placed on ice and in the dark for 15 min to allow annexin V staining. After 15 min, 860 μl of Ca^2+ buffer (10 mM Hepes adjusted to pH 7.4, 140 mM NaCl and 2.5 mM CaCl2) was added, followed by 40 μl of 1 mg/ml PI in water (final concentration, 0.04 mg/ml) to give a final volume of 1 ml. The samples were then ready to be assessed by flow cytometry.
as §2

A431 cells [4] = assay: Mitochondrial reactive oxygen species generation during photodynamic irradiation, MitoSOX flow cytometry; format: cell-based, human; details: 3 hours, irradiated
Experimental: A431 cells were treated concurrently with AP39-C10 (10, 100 or 1000 nM) for 5 hours, MAL (1 mM) for 3 hours and MitoSOX (2.5 μM) for 1 hour, after which they were irradiated for 5 min (630 nm, 25 J/cm^2) and MitoSOX (mito-2-OH-E^+) fluorescence, indicative of mitochondrial oxidant production, was immediately analysed by flow cytometry. Results are set out in FIG. 23.
Mitochondria-targeted dihydroethidium (i.e. MitoSOX) was used to assess the production of mitochondrial reactive oxygen species (ROS) by PpIX photochemical reactions and to determine the effects of AP39-C10 on this process. All of the results are represented as a percentage of the untreated controls (100.0±8.5%). The fluorescence of the photoirradiated cells, which had been pre-treated with MAL, was 193.7±7.3% (p<0.001 c.f. untreated controls).

A431 cells [5] = assay: MAL-induced PpIX accumulation, fluorescence plate reader; format: cell-based, human; details: 3 hours, FIG. 38
[6] = 1 mM MAL + SRHD 1 μM (5 h) + irradiation, 3 h post-irradiation
[7] = dark toxicity, without irradiation, SRHD 1 μM, 5 h, FIG. 1, 3

Molecule | cell viability, percentage of untreated control (A431 cells [1]; 500 μM, 5 hours, FIG. 15, 16) | cell death (A431 cells [2]; [6]) | cell death (A431 cells [2]; [7]) | potentiating effect on MAL photodynamic cell killing (A431 cells [3]; summary of Examples 2A, 3A) | modes of cell death (early apoptosis, late apoptosis, necrosis) (A431 cells [2]) | also measured
NC(=S)c1ccc(OC(=O)CCCCCCC[P+](c2ccccc2)(c2ccccc2)c2ccccc2)cc1 [AP123-C8] | 13.2±1.8% | 67.5±6.4% | 13.2±3.1% | – | – | –
CCC(C)SSc1ncc[nH]1 (stereo not drawn) [PX12, 2-[(1-Methylpropyl)dithio]-1H-imidazole] | – | – | – | more robust potentiating effect | – | cell death (A431 cells [3]; 1 mM MAL + co-treatment 10 μM): 70.5±4.5%; MitoSOX fluorescence, percentage of untreated cells (A431 cells [4]; MAL 1 mM + co-treatment 10 μM): 211.4±17.6%; cell viability, percentage of untreated control (A431 cells [1]; 500 μM, 24 hours): 47.5±4.9%; concentration up to which well tolerated / no cytotoxicity (A431 cells [1]; 24 hours): ≤ 100 µM
O=C(CCCCCCCCCCC[P+](c1ccccc1)(c1ccccc1)c1ccccc1)Oc1ccc(-c2cc(=S)ss2)cc1 [AP39-C12] | 13.3±1.8% | 51.6±3.2% | 11.7±1.5% | – | – | –
O=C(CCCCCCC[P+](c1ccccc1)(c1ccccc1)c1ccccc1)Oc1ccc(-c2cc(=S)ss2)cc1 [AP39-C8] | 20.1±4.5% | 46.3±2.1% | 14.9±2.3% | – | – | –
CC[PH](CC)(CC)[Au][S][C@@H]1O[C@H](COC(C)=O)[C@@H](OC(C)=O)[C@H](OC(C)=O)[C@H]1OC(C)=O [auranofin] | – | – | – | – | – | modes of cell death (A431 cells [3]): primarily increased necrotic cell death; also recorded: slightly increased late apoptotic cell death; also recorded: concentration-dependent increases in late apoptosis and necrosis, with little effect on early apoptosis; potentiating effect on MAL photodynamic cell killing (A431 cells [3]): more robust potentiating effect; concentration up to which well tolerated / no cytotoxicity (A431 cells [1]; human): ≤ 10 µM
aurothiomalate [ATM] | – | – | – | more robust potentiating effect | – | cell death (A431 cells [3]; 1 mM MAL + co-treatment 20 μM): 66.7±4.9%; MitoSOX fluorescence, percentage of untreated cells (A431 cells [4]; MAL 1 mM + co-treatment 20 μM): 192.4±5.6%; tolerance (dark toxicity) (A431 cells [1]; 0.1-500 μM, 24 hours): well tolerated at all concentrations tested
CC1(C)CC(=O)CC(C)(C)N1[O] [TEMPONE] | – | – | – | mild potentiating effect | – | cell death (A431 cells [3]; 1 mM MAL + co-treatment 1 mM (1000 μM)): 37.9±2.3%; modes of cell death (A431 cells [3]; 1 mM MAL + nitroxide 1 mM (MitoTEMPO 50 μM) + irradiation, FIG. 13, 34): a further increase in late apoptosis and necrosis with little effect on apoptotic cell death; MitoSOX fluorescence, percentage of untreated cells (A431 cells [4]; MAL 1 mM + co-treatment 1 mM (1000 μM)): 226.4±6.8%; PpIX accumulation, percentage of the MAL alone treatment (A431 cells [5]; 10 μM + MAL 1 mM): 100.3±4.0%; PpIX accumulation, percentage of the MAL alone treatment (A431 cells [5]; 100 μM + MAL 1 mM): 123.8±2.5%; PpIX accumulation, percentage of the MAL alone treatment (A431 cells [5]; 1000 μM + MAL 1 mM): 160.2±3.2%; cell viability, percentage of untreated control (A431 cells [1]; 10 mM, 24 hours): 80.3±13.3%; cell viability, percentage of untreated control (A431 cells [1]; 50 mM, 24 hours): 53.7±13.3%
NC(=S)c1ccc(OC(=O)CCCCCCCCCCC[P+](c2ccccc2)(c2ccccc2)c2ccccc2)cc1 [AP123-C12] | 17.0±0.7% | 72.5±2.0% | 12.7±3.0% | – | less effect on early apoptosis, instead increasing late apoptosis and necrosis | –
NC(=S)c1ccc(O)cc1 [4-HTB, 4-hydroxythiobenzamide] | – | 22.5±5.5% | – | – | no effect on the types of cell death observed compared to treatment with MAL and irradiation | concentration up to which treatment was well tolerated (A431 cells [1]; 5 hours, range 0.1-500 μM): up to 500 μM; effect on photodynamic cell killing compared to MAL and irradiation only (A431 cells [2]): no statistically significant effect on photodynamic cell killing
Oc1ccc(-c2cc(=S)ss2)cc1 [ADT-OH, 5-(4-hydroxyphenyl)-3H-1,2-dithiole-3-thione] | 76.7±1.3% | 25.7±6% | – | – | no effect on the types of cell death observed compared to treatment with MAL and irradiation | effect on photodynamic cell killing compared to MAL and irradiation only (A431 cells [2]): no statistically significant effect on photodynamic cell killing
